Results: US11471395B2, “Method for preventing aging with bioactive compound” (TCI CO., LTD., priority 2020, dated 2022)

Columns and labels:
Format in all cases: cell-based
SIRT1 gene = experiment: Anti-aging gene expression test in human fibroblasts (qPCR), SIRT1 gene; conditions: 25 μg synthesized peptide per 1 ml medium, human fibroblasts (CCD-966SK), 24 h, 37° C.
Method: (§1) In order to confirm the effect of each of the amino acid sequences on gene expression in cells, human fibroblasts (CCD-966SK) and individual synthesized peptides were co-cultured, and then, gene expression in the cells was analyzed. 6 types of synthesized peptides were respectively subjected to cell experiments. In addition, the amino acid sequences of 6 types of synthesized peptides were respectively SEQ ID NO: 1, SEQ ID NO: 2, SEQ ID NO: 3, SEQ ID NO: 4, SEQ ID NO: 5 and SEQ ID NO: 6. The sequence numbers SEQ ID NO: 1 to SEQ ID NO: 6 will be referred to as groups. […]
(§2) For peptide experiment groups (corresponding to Experiment group A to Experiment group F), according to a proportion of 25 μg of synthesized peptide per 1 ml of cell culture medium, the human fibroblasts were cultured for 24 h at 37° C. […] In addition, the primers firstly reacted by a green fluorescent dye of SYBR green dye (Applied Biosystem), and quantification of gene expression was performed by a 2-ΔΔCt method. It should be noted that the gene expression in the drawings was shown in relative fold, ratio or percentage, where standard deviations were calculated by an STDEV formula of Excel software, and statistically significant differences were analyzed by one-tailed student t-test in the Excel software. […]

CCT2 gene = experiment: Anti-aging gene expression test in human fibroblasts (qPCR), CCT2 gene; conditions: 25 μg synthesized peptide per 1 ml medium, human fibroblasts (CCD-966SK), 24 h, 37° C.
Method: as §1, §2

CCT8 gene = experiment: Anti-aging gene expression test in human fibroblasts (qPCR), CCT8 gene; conditions: 25 μg synthesized peptide per 1 ml medium, human fibroblasts (CCD-966SK), 24 h, 37° C.
Method: as §1, §2

Atg8 gene = experiment: Anti-aging gene expression test in human fibroblasts (qPCR), Atg8 gene; conditions: 25 μg synthesized peptide per 1 ml medium, human fibroblasts (CCD-966SK), 24 h, 37° C.
Method: as §1, §2

Ubl-5 gene = experiment: Anti-aging gene expression test in human fibroblasts (qPCR), Ubl-5 gene; conditions: 25 μg synthesized peptide per 1 ml medium, human fibroblasts (CCD-966SK), 24 h, 37° C.
Method: as §1, §2

[1] = system: mitochondria activities of human fibroblasts (CCD-966SK); experiment: Mitochondria activity test (JC-1 membrane potential, flow cytometry); conditions: 24 h, 37° C.
Method: Then, in order to confirm the effect of each of the amino acid sequences on mitochondria activities, human fibroblasts (CCD-966SK) and the individual peptides were co-cultured, and then, the mitochondrion activities was analyzed. 6 types of synthesized peptides were respectively subjected to mitochondria activity tests. In addition, the amino acid sequences of 6 types of synthesized peptides were respectively SEQ ID NO: 1, SEQ ID NO: 2, SEQ ID NO: 3, SEQ ID NO: 4, SEQ ID NO: 5 and SEQ ID NO: 6. The sequence numbers SEQ ID NO: 1 to SEQ ID NO: 6 will be referred to as groups.
For mitochondria activity tests, after human fibroblasts and samples to be tested (such as peptides or compositions) were co-cultured, then, co-cultured cells were treated by a mitochondria membrane potential detection kit (containing a JC-1 mitochondria coloring agent, purchased from BD). Mitochondria activity test groups were divided into 7 groups.
Firstly, each of the groups (Experiment group H to Experiment group M, and Control group) was co-cultured with 1×10^5 human fibroblasts in a cell culture plate containing 2 ml of cell culture medium (X-VIVO™ 10). Then, the samples to be tested for each of the group were added into corresponding culture plates according to Table 6, and were co-cultured with the human fibroblasts at 37° C. for 24 h. Control group was co-cultured for 24 h by a peptide-free culture medium under the same conditions.
Before the mitochondria activity test was performed, a JC-1 mitochondria coloring agent was prepared. Firstly, a 10× JC-1 buffer solution was preheated at 37° C., was then diluted into a 1× JC-1 buffer solution by a 1× phosphate buffer solution (PBS, purchased from Gibco), and was maintained at 37° C. after being uniformly mixed. 130 μl of dimethyl sulfoxide (DMSO) was added into a lyophilized JC-1 reagent to prepare a JC-1 stock solution. Then, the JC-1 stock solution was diluted 1000 folds by the 1× JC-1 buffer solution to prepare a JC-1 work solution.
After co-culture for 24 h, the cell culture medium in the culture plate was removed. The co-cultured cells were rinsed twice by PBS so as to remove the residual cell culture medium. The cells were trypsinized from the culture plate, and were collected into a 1.5 ml microcentrifuge tube to be centrifuged for 5 min at 400×g so as to form a primary supernatant and a primary cell precipitate. After the primary supernatant was removed, the primary cell precipitate was resuspended by PBS to form a primary cell solution. The primary cell solution was transferred into a 1.5 ml centrifuge tube to be centrifuged for 5 min at 400×g again so as to separate the primary cell solution into a secondary supernatant and a secondary cell precipitate. Then, after the secondary supernatant was removed, 100 μl of JC-1 work solution was added to the secondary cell precipitate and vortexed to form a secondary cell solution. The secondary cell solution was cultured in dark at a room temperature for 15 min.
After cultured dark, the secondary cell solution was centrifuged for 5 min at 400×g. […] Standard deviations of the results were calculated by an STDEV formula of Excel software, and statistically significant differences were analyzed by one-tailed student t-test in the Excel software. […]

CCT5 gene = experiment: Anti-aging gene expression test in human fibroblasts (qPCR), CCT5 gene; conditions: 25 μg synthesized peptide per 1 ml medium, human fibroblasts (CCD-966SK), 24 h, 37° C.
Method: as §1, §2

CCT7 gene = experiment: Anti-aging gene expression test in human fibroblasts (qPCR), CCT7 gene; conditions: 25 μg synthesized peptide per 1 ml medium, human fibroblasts (CCD-966SK), 24 h, 37° C.
Method: as §1, §2

Pink1 gene = experiment: Anti-aging gene expression test in human fibroblasts (qPCR), Pink1 gene; conditions: 25 μg synthesized peptide per 1 ml medium, human fibroblasts (CCD-966SK), 24 h, 37° C.
Method: as §1, §2

CCT6A gene = experiment: Anti-aging gene expression test in human fibroblasts (qPCR), CCT6A gene; conditions: 25 μg synthesized peptide per 1 ml medium, human fibroblasts (CCD-966SK), 24 h, 37° C.
Method: as §1, §2

Sequence	fold of upregulation of SIRT1 gene expression vs Control group (SIRT1 gene) [folds]	fold of upregulation of CCT2 gene expression vs Control group (CCT2 gene) [folds]	fold of upregulation of CCT8 gene expression vs Control group (CCT8 gene) [folds]	fold of upregulation of Atg8 gene expression vs Control group (Atg8 gene) [folds]	fold of upregulation of Ubl-5 gene expression vs Control group (Ubl-5 gene) [folds]	improvement of mitochondria activities as compared with Control group ([1]; 10 μg peptide in 2 ml medium) [%]	fold of upregulation of CCT5 gene expression vs Control group (CCT5 gene) [folds]	fold of upregulation of CCT7 gene expression vs Control group (CCT7 gene) [folds]	fold of upregulation of Pink1 gene expression vs Control group (Pink1 gene) [folds]	fold of upregulation of CCT6A gene expression vs Control group (CCT6A gene) [folds]	improvement of mitochondria activities as compared with Control group ([1]; 25 μg peptide in 2 ml medium) [%]
DKPLIPEGP (listed as Pangasius bocourti) [SEQ ID NO: 5, synthesized peptide of Basa skin; Titin, tandem duplicate 2]	6.62	5.86	6.88	5.13	5.24	26.7	6.03	7.92	5.85	5.47	
GPLGPIGPPGLP (listed as Pangasius bocourti) [SEQ ID NO: 6, synthesized peptide of Basa skin; Procollagen, type V, alpha I]	6.52	5.71	6.43	4.28	5.16		6.76	7.89	6.42	5.28	68.9
NPGPHGQPGPPGP (listed as Pangasius bocourti) [SEQ ID NO: 4, synthesized peptide of Basa skin; Persistent plexus]						32.9					
PGAPGSSGPKG (listed as Pangasius bocourti) [SEQ ID NO: 2, synthesized peptide of Basa skin; collagen, type XIV]						32.7					
VAEGAQGNIGPA (listed as Pangasius bocourti) [SEQ ID NO: 3, synthesized peptide of Basa skin; Kinesin family member 21B]						25.6					
